Results published in ChEMBL document CHEMBL1146695 (Bioorg Med Chem Lett, 2004).

Assays:
Carbonic anhydrase 9 = Carbonic anhydrase 9 (Homo sapiens, UniProt Q16790)
Description: Compound was evaluated for inhibition against human carbonic anhydrase IX

Carbonic anhydrase 1 = Carbonic anhydrase 1 (Homo sapiens, UniProt P00915)
Description: Compound was evaluated for inhibition against human carbonic anhydrase I

Carbonic anhydrase 2 = Carbonic anhydrase 2 (Homo sapiens, UniProt P00918)
Description: Compound was evaluated for inhibition against human carbonic anhydrase II

Carbonic anhydrase 4 = biological target: T1, Carbonic anhydrase 4 (Bos taurus, UniProt Q95323)
T1 sequence (Q95323 whole entry): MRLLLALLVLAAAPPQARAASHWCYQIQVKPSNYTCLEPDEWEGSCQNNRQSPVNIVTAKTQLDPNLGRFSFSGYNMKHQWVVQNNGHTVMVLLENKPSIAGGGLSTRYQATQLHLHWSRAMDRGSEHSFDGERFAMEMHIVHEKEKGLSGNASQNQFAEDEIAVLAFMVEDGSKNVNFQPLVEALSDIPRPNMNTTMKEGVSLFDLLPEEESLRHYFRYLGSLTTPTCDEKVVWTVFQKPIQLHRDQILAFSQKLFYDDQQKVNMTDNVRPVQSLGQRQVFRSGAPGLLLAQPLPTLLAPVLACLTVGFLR
Description: Compound was evaluated for inhibition against bovine carbonic anhydrase IV

Chain of Carbonic anhydrase 1 (P00915 whole entry): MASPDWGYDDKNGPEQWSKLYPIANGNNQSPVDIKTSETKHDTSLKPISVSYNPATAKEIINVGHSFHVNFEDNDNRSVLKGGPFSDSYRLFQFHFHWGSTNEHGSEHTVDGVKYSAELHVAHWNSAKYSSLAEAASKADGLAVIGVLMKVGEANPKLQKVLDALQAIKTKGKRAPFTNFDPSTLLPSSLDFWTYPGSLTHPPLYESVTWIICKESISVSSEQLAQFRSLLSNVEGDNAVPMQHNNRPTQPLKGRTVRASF

With NS(=O)(=O)c1ccc(S(=O)(=O)Nc2cccc3[nH]cc(Cl)c23)cc1 the Ki (Carbonic anhydrase 9) was 24 nM, the Ki (Carbonic anhydrase 1) was 31 nM and the Ki (Carbonic anhydrase 2) was 15 nM. The Ki (Carbonic anhydrase 4) was 65 nM.
